The numbers were not newly measured in patent publication US7432380B2, “Crystalline form of Fluvastatin sodium” (Ciba Specialty Chemicals Corp., priority 2003, dated 2008), which cites them from elsewhere.

For the data set the following is noted: relative air humidity of surrounding atmosphere; from WO-A-03/13512.

Regarding `CC(C)n1c(/C=C/[C@H](O)C[C@H](O)CC(=O)[O-])c(-c2ccc(F)cc2)c2ccccc21.[Na+]` [Form F], the “air humidity of atmospheres in which the form is stable” value is “up to 90%”.
